For five compounds, Kd, LD50 and inhibition results are on record in ChEMBL document CHEMBL3046145, “Computational and experimental evaluation of ornithine derivatives as ornithine decarboxylase inhibitors” (Med Chem Res, 2009).

The target in data set [1] is T1, Ornithine decarboxylase (Homo sapiens, UniProt P11926).
T1 sequence (P11926 whole entry): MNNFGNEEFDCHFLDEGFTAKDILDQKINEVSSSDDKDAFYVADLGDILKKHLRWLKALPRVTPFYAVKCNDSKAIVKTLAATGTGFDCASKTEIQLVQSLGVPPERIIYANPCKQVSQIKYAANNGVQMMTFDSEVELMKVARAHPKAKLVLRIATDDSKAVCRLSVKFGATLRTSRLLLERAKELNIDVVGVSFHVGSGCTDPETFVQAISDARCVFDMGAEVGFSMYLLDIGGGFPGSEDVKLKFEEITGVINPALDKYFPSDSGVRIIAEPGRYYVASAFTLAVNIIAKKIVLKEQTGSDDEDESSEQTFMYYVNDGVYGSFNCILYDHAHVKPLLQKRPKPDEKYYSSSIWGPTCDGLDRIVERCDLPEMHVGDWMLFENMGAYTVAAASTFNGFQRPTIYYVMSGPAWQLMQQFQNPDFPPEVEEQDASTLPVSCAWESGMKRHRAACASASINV
As to the kind of experiment: Binding affinity to ODC (unknown origin).

For data set [2], the species on record is Rattus norvegicus. As to the kind of experiment: Toxicity in Rattus norvegicus (rat). The settings on record: in vivo. It counts as organism-based.
Data set [3] can be described thus: Toxicity in ip dosed Mus musculus CD1 (mouse) assessed as mortality. It counts as organism-based. The settings on record: in vivo.
Data set [4] deals with T2, Ornithine decarboxylase (Rattus norvegicus) (UniProt P09057).
T2 sequence (whole entry): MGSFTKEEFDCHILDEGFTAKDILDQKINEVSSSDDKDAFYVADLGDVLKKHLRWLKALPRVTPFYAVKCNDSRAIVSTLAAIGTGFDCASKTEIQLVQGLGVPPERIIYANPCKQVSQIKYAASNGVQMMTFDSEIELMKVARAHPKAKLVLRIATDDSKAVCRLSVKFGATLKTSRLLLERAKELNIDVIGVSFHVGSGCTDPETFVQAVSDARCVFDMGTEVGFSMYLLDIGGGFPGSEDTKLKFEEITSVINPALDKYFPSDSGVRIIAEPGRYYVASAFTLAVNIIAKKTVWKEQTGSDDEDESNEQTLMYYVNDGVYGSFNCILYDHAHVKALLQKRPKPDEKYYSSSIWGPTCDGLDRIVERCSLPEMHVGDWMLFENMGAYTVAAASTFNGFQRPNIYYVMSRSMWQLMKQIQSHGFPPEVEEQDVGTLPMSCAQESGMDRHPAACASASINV
As to the kind of experiment: Inhibition of Rattus norvegicus Wistar (rat) rat liver ODC assessed as inhibition of 14CO2 release from L-[14C]ornithine.

Activity calls are given as the source filed them. The rule behind the calls is not given here.

Broadly, the Kd is the equilibrium constant for the complex coming apart. A lower Kd goes with tighter binding. Regarding `NCCC[C@@](N)(CF)C(=O)O`, the Kd in data set [1] worked out at 75 µM.

In data set [1], `NCCC[C@H](NN)C(=O)O` [ALPHA-HYDRAZINE ORNITHINE] had a Kd of 0.5 µM.

For `NCCC[C@](N)(C(=O)O)C(F)F` [EFLORNITHINE, (S)-], the LD50 in data set [2] was determined as 300 µg.

Take `NCCC[C@H](N)C(=O)O` [ORNITHINE]: the affinity in data set [1], expressed as Kd, was 250 µM.

`N[C@@H](CCCNC(=O)CCl)C(=O)O`: in data set [3], the LD50 is 381 mg/kg. In data set [1], binding was put at a Kd of 2500 µM. In addition, in data set [4], the inhibition result is “Active”.
